Earlier results on one molecule are cited in US20240390332A1, “Combination treatment and/or prevention of renal diseases and/or hypertension in non-human mammals comprising one or more SGLT-2 inhibitors and telmisartan” (BOEHRINGER INGELHEIM VETMEDICA GMBH, priority 2023, published 2024).

The series concerns human patients suffering from diabetes mellitus type II. Conditions: baseline to week 12, empagliflozin 10 mg and 25 mg groups vs placebo.

As for `OC[C@H]1O[C@@H](c2ccc(Cl)c(Cc3ccc(O[C@H]4CCOC4)cc3)c2)[C@H](O)[C@@H](O)[C@@H]1O` [empagliflozin, Empagliflozin], the “mean 24-hour systolic BP, placebo-subtracted mean difference” value is given as “up to −4.16 mmHg”.
